In paper PMC6047675, “Neutral metalloaminopeptidases APN and MetAP2 as newly discovered anticancer molecular targets of actinomycin D and its simple analogs” (Oncotarget, 2018):
Like-named read-outs stand apart in the source and are kept apart here. Starred links: 1 amine or outer side, 2 acyl side, 3 side chain; linkers in the order of their positions; H or OH if unused. Positions of bridges follow the written chain, without caps; N, C: chain ends. Non-standard residues stand in square brackets, D forms with d. Residues, ends and D or L forms follow the SMILES beside them. Chains are numbered I, II in the order given. Actinocin(1to9) = Cc1c2oc3c(C)ccc(C(=O)[*:2])c3nc-2c(C(=O)[*:1])c(N)c1=O; Actinocin(9to1) = Cc1c2oc3c(C)ccc(C(=O)[*:1])c3nc-2c(C(=O)[*:2])c(N)c1=O; Pro(4-oxo) = O=C1CN[C@H](C(=O)O)C1; NMeV = CN[C@H](C(=O)O)C(C)C; Sar = CNCC(=O)O

Key:
[1] = target: T1, human alanine aminopeptidase (HsAPN) (Homo sapiens, UniProt P15144); experiment: Inhibition of recombinant human APN, fluorogenic substrate Ala-AMC; assay type: biochemical; conditions: for mechanism of inhibition of HsAPN: from Lineweaver-Burk and Dixon plots
T1 construct: purchased R&D Systems
Source text: (§1) Actinomycin D was purchased as a lyophilized powder from Sigma-Aldrich (Poznan, Poland), Actinomycin X2 was purchased form Adipogen (Liestal, Switzerland). Actinocine and Questiomycin A were synthesized according to a previously described procedure. Recombinant human APN and MetAP2 were purchased as a lyophilized powder from R&D Systems (Minneapolis, USA). Fluorogenic substrates Ala-AMC (L-alanine-4-methylcoumaryl-7-amide) and Met-AMC (L-methionine-4-methylcoumaryl-7-amide) were purchased from PeptaNova (Sandhausen, Germany). Spectrofluorometry was performed on a Spectra MAX Gemini EM fluorimeter (Molecular Devices, Sunnyvale, USA) in a 96-well plate format (Excitation = 355 nm, Emission = 460 nm). Calculations of the kinetic parameters were performed using the SoftMax Pro, GraphPad Prism and Microsoft Excel programs.
(§2) Recombinant human APN enzyme was dissolved in 50 mM Tris-HCl buffer (pH = 7.0) and used directly in the kinetic experiments. Recombinant human MetAP2 was obtained as a lyophilized powder from R&D Systems. The enzyme was dissolved in 100 mM Tris-maleate buffer containing 0.1 mM CoCl2, 100 mM NaCl and 0.075 % v/v albumin at pH = 7.5 and incubated for 30 minutes. After this activation, the enzyme was used directly in the kinetic experiments.
(§3) The inhibitors were screened against human APN and human MetAP2 at 37°C in the assay buffer as described above. For the steady-state measurements, the enzymes were preincubated for 30-60 min at 37°C with an inhibitor before adding the substrate (Ala-AMC, 40 μM for human APN or Met-AMC and 50 μM for MetAP2) to the wells. For the initial state measurements, the enzymes were preincubated for 15-30 min at 37°C before adding the substrate and inhibitor to the wells. The following conditions were used: (1) total volume 100 μL, (2) eight different inhibitor concentrations, and (3) enzyme concentration of 0.3 nM for human APN and 1 nM for MetAP2. The release of the AMC fluorophore was monitored. The linear portion of the progress curve was used to calculate the velocity. hPhePCH2Phe for APN and ebselen for MetAP2 were used as a positive control. The inhibition mechanism was determined from the Lineweaver-Burk and Dixon plot (Figure 2B and 2D). The IC50 values were calculated from the reaction velocity to inhibitor concentration plot fitted to the equation log[I] vs. response. The Ki values were equal to the IC50 for non-competitive inhibitors and were calculated for competitive inhibitors using the following equation: Ki = (IC50-[E]/2)/ (1 + ([S]/Km)), where the IC50 is the concentration of the inhibitor that effected 50% inhibition, [S] and Km are the substrate concentration and Michaelis constant in the absence of inhibitor, respectively, and [E] is the concentration of the enzyme.

[2] = target: T2, human methionine aminopeptidase type 2 (HsMetAP2) (Homo sapiens, UniProt P50579); experiment: Inhibition of recombinant human MetAP2, fluorogenic substrate Met-AMC; assay type: biochemical; conditions: for mechanism of inhibition of HsMetAP2: from Lineweaver-Burk and Dixon plots
T2 construct: purchased R&D Systems
Source text: as §1, §2, §3

[3] = tested on: human acute B- and T-lymphoblastic leukemia, cervix carcinoma and larynx carcinoma; set-up: method as in PMID 12431048; conditions: read-out: IC50 cytotoxicity; cited from earlier work
[4] = tested on: human leukemia cell line HL-60; conditions: read-out: LC50 (lethal concentration for a half of population), cytotoxicity HL-60; cited from earlier work
[5] = TRIS buffer, 37°C, average with standard deviation, at least three experiments, read-out: IC50 HsAPN
[6] = TRIS buffer, 37°C, calculated by Cheng-Prusoff equations for non-competitive and competitive inhibitors, average with standard deviation, at least three experiments, read-out: Ki HsAPN
[7] = more effective than Actinomycin D/X2
[8] = TRIS buffer, 37°C, average with standard deviation, at least three experiments, read-out: IC50 HsMetAP
[9] = TRIS buffer, 37°C, calculated by Cheng-Prusoff equations for non-competitive and competitive inhibitors, average with standard deviation, at least three experiments, read-out: Ki HsMetAP

T2 sequence (P50579 whole entry): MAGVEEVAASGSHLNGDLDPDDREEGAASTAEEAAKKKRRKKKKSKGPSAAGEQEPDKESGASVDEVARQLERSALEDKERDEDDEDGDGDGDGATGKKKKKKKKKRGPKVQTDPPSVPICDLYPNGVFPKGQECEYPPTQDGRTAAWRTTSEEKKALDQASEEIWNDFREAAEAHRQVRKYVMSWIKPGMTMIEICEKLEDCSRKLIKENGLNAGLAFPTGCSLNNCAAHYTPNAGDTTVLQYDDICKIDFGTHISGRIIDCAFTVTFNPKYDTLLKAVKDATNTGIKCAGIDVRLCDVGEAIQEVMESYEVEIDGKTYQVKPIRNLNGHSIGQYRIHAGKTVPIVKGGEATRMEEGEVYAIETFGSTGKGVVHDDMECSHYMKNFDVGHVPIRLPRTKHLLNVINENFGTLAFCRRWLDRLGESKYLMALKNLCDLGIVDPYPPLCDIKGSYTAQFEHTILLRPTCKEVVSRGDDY
T1 sequence (P15144 whole entry): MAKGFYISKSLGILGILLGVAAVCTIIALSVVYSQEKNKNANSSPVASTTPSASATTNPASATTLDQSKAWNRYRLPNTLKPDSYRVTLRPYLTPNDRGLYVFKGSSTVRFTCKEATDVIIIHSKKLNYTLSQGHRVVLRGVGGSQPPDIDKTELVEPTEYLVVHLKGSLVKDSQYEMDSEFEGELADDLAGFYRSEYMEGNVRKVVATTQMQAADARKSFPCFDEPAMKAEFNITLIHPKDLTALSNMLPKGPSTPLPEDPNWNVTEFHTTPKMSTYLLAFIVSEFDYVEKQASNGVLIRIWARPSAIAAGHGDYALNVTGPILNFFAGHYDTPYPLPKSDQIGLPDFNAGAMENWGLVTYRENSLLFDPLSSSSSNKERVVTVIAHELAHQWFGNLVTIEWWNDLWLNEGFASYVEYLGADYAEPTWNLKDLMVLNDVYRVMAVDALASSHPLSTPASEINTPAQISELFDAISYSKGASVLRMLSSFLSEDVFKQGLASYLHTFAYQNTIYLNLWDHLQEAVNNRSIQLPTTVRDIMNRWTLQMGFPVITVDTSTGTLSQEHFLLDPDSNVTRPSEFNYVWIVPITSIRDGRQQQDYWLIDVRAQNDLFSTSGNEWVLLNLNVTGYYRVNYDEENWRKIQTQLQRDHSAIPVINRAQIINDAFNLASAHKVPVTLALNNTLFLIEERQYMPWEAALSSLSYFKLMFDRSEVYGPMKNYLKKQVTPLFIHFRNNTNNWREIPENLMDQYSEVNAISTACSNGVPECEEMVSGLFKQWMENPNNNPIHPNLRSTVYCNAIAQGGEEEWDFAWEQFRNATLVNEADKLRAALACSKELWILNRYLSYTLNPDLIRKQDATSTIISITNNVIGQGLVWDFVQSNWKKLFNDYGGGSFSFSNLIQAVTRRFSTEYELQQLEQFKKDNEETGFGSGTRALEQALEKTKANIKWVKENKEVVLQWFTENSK

IC50 [1, 5] [µM]	Ki [1, 6] [µM]	effectiveness relative to Actinomycin D/X2, HsAPN [1, 7]	IC50 [2, 8] [µM]	Ki [2, 9] [µM]	effectiveness relative to Actinomycin D/X2, HsMetAP2 [2, 7]	times less effective, HsAPN ([1]; in contrast to Actinocin) [times]	decrease in activity for HsAPN compared to the lead compound ([1]; lead compound = Actinomycin D)	times less effective, HsMetAP2 ([2]; in contrast to Actinocin) [times]	decrease in activity for HsMetAP2 compared to the lead compound ([2]; lead compound = Actinomycin D)	Compound	mechanism of inhibition of HsAPN [1]	mechanism of inhibition of HsMetAP2 [2]	IC50 [3] [µM]	IC50 [1] [µM]	Ki [1] [µM]	IC50 [2] [µM]	Ki [2] [µM]	CC50 [4] [µM]
7.25 ± 1.2	6.04 ± 0.51	twice as effective	2.34 ± 0.62	2.04 ± 0.23	four times as effective	–	–	–	–	Cc1c2oc3c(C)ccc(C(=O)O)c3nc-2c(C(=O)O)c(N)c1=O [Actinocin]	competitive	competitive	–	–	–	–	–	–
63 ± 3.2	52.5 ± 2.7	–	34.9 ± 3.2	30.4 ± 3.2	–	10	five-fold	10	five-fold	Nc1cc2nc3ccccc3oc-2cc1=O [Questiomycin A]	competitive	competitive	1 to 3	–	–	–	–	–
–	–	–	–	–	–	–	–	–	–	Cc1c2oc3c(C)ccc(C(=O)N[C@@H]4C(=O)N[C@H](C(C)C)C(=O)N5CCC[C@H]5C(=O)N(C)CC(=O)N(C)[C@@H](C(C)C)C(=O)O[C@@H]4C)c3nc-2c(C(=O)N[C@@H]2C(=O)N[C@H](C(C)C)C(=O)N3CCC[C@H]3C(=O)N(C)CC(=O)N(C)[C@@H](C(C)C)C(=O)O[C@@H]2C)c(N)c1=O [Actinomycin D] (I: T[dV]P[Sar][NMeV] / II: T[dV]P[Sar][NMeV]; ester I:1-I:C, II:1-II:C; linker I:N-II:N via Actinocin(9to1))	non-competitive	non-competitive	0.001 to 0.008	11.9 ± 1.1	11.9 ± 1.1	7.37 ± 0.56	7.37 ± 0.56	–
–	–	–	–	–	–	–	–	–	–	Cc1c2oc3c(C)ccc(C(=O)N[C@@H]4C(=O)N[C@H](C(C)C)C(=O)N5CCC[C@H]5C(=O)N(C)CC(=O)N(C)[C@@H](C(C)C)C(=O)O[C@@H]4C)c3nc-2c(C(=O)N[C@@H]2C(=O)N[C@H](C(C)C)C(=O)N3CC(=O)C[C@H]3C(=O)N(C)CC(=O)N(C)[C@@H](C(C)C)C(=O)O[C@@H]2C)c(N)c1=O [Actinomycin X2, reference compound] (I: T[dV][Pro(4-oxo)][Sar][NMeV] / II: T[dV]P[Sar][NMeV]; ester I:1-I:C, II:1-II:C; linker I:N-II:N via Actinocin(1to9))	non-competitive	non-competitive	–	12.2 ± 1.4	12.2 ± 1.4	8.33 ± 0.75	8.33 ± 0.75	0.008
